The values that follow come from patent US8314150B2, “Kinase protein binding inhibitors” (priority 2008, dated 2012).

The subject of the test is Panc-1 cells. The experiment in a line: Detachment assay, Panc-1. In kind it is cell-based, human. The following applies: for detachment: 48 hours. The protocol:
Cell Viability Assay—The Cells were treated with peptides for 24 hours at different peptide concentrations. The 3-(4,5-dimethylthiazol-2-yl)-5-(3-carboxymethoxyphenyl)-2-(4-sulfophenyl)-2H-tetrazolium compound from Promega Viability kit (Madison, Ill.) was added, and the cells were incubated at 37° C. for 1-2 hours. The optical density on 96-plate was analyzed with a microplate reader at 490 nm to determine cell viability. In addition, cells were stained with trypan blue after 24 hours of treatment with Y15 and the percent of cells that stained positive were determined with a hemacytometer. Cell adhesion assay—The poly-L-Lysine or Collagen (5 μg/ml) coated 96-well plates were blocked with the blocking buffer (medium with 0.5% BSA) for 1 hour at 37 C. The cells were pre-treated with drugs for 3 hours and plated for adhesion at 4×10^5 cells. Cells were incubated at 37 C for 1 hour, fixed in 3.7% formaldehyde, washed in 0.1% BSA in PBS and stained with crystal violet (5 mg/ml in 2% ethanol) for 10 minutes. Then 2% SDS was added to the dried plated and OD at 590 nm was measured for detecting cell adhesion. […] Protein concentrations were determined using a Bio-Rad Kit. The boiled samples were loaded on Ready SDS-10% PAGE gels (Bio Rad, Inc) and used for Western blot analysis with the protein-specific antibody. […] We calculated the percent of detachment by dividing the number of detached cells by the total number of cells. The percent of detached cells was calculated in three independent experiments. […] The percent of apoptotic cells was calculated as a ratio of apoptotic detached cells divided by the total number of cells in three independent experiments in several fields with the fluorescent microscope. For each experiment 300 cells per treatment were counted. […]

For the compound `Cl.Cl.Cl.Cl.Nc1cc(N)c(N)cc1N` [Y15, 1,2,4,5-benzenetetraamine tetrahydrochloride], the “detachment compared with TAE226” value is given as “more detachment than TAE226”. This compound showed a detachment (10 μM) of 13%. Where the note is “50 μM”, this compound displayed a detachment of 32%.
